Measurements reported in patent US8134015B2, “Compound inhibiting in vivo phosphorous transport and medicine containing the same” (Kyowa Hakko Kirin Co., Ltd., priority 2003, dated 2012).

Molecular target: T1, rat NaPi-2b (Rattus norvegicus, UniProt Q9JJ09)
T1 construct: expressed in transfected cells; host or cells: Xenopus oocytes injected with cRNA
T1 sequence (Q9JJ09 1-695): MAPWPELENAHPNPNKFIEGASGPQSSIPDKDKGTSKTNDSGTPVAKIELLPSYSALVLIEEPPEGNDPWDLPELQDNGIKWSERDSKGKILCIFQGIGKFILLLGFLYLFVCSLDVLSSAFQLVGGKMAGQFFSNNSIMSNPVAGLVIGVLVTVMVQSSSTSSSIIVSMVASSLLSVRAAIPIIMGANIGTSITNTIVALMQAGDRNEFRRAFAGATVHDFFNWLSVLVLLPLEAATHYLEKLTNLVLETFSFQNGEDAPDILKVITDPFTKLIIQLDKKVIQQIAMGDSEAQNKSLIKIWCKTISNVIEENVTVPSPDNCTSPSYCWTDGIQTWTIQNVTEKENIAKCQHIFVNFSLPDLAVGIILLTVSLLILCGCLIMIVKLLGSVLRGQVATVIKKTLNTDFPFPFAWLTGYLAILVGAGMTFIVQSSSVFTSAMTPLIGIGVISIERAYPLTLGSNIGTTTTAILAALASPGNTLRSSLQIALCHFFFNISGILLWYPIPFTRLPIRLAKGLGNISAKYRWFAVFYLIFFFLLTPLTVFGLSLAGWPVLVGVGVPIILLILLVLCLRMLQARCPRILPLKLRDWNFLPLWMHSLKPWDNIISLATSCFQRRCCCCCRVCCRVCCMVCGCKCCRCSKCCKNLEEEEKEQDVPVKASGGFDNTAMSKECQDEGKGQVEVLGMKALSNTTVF
Experiment: Sodium-dependent phosphate uptake of Xenopus oocytes which expressed NaPi-2b (32P)
Assay type: cell-based
Conditions: Xenopus oocytes expressing rat NaPi-2b, 32P radioactive phosphorus; read-out: IC50 (phosphate uptake inhibitory activity)
How it was run: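 Rat NaPi-2b cloned from small-intestine cDNA; cRNA injected into Xenopus oocytes, expression for 2 days. Phosphate uptake inhibition measured with 32P; percent inhibition at 300 μM and 100 μM read from the same inhibition curve.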

Row | Compound | IC50
1 | CCN(CC)CCNCc1ccc(C(=O)Nc2ccc(Br)cc2C(=O)N/N=C/c2cccc(C)c2)cc1 [Compound 294, N-[4-Bromo-2-(3-methyl-benzylidene-hydrazinocarbonyl)-phenyl]-4-[(2-diethylamino-ethylamino)-methyl]-benzamide] | 7800 nM
2 | CCN(CC)CCNCc1ccc(C(=O)Nc2ccc(Br)cc2C(=O)N/N=C/c2ccc(F)cc2)cc1 [Compound 295, N-[4-Bromo-2-(4-fluoro-benzylidene-hydrazinocarbonyl)-phenyl]-4-[(2-diethylamino-ethylamino)-methyl]-benzamide] | 7580 nM
3 | CCN(CC)CCNCc1ccc(C(=O)Nc2ccc(Br)cc2C(=O)N/N=C/c2cccc(F)c2)cc1 [Compound 296, N-[4-Bromo-2-(3-fluoro-benzylidene-hydrazinocarbonyl)-phenyl]-4-[(2-diethylamino-ethylamino)-methyl]-benzamide] | 1450 nM
4 | CCN(CC)CCNCc1ccc(C(=O)Nc2ccc(Br)cc2C(=O)N/N=C/c2ccc(Cl)c(C(F)(F)F)c2)cc1 [Compound 297, N-[4-Bromo-2-(4-chloro-3-trifluoromethyl-benzylidene-hydrazinocarbonyl)-phenyl]-4-[(2-diethylamino-ethylamino)-methyl]-benzamide] | 960 nM
5 | CCN(CC)CCNCc1ccc(C(=O)Nc2ccc(Br)cc2C(=O)N/N=C/c2ccc(OC)cc2)cc1 [Compound 298, N-[4-Bromo-2-(4-methoxy-benzylidene-hydrazinocarbonyl)-phenyl]-4-[(2-diethylamino-ethylamino)-methyl]-benzamide] | 9220 nM
6 | CCN(CC)CCNCc1ccc(C(=O)Nc2ccc(Br)cc2C(=O)N/N=C/c2cccc(OC)c2)cc1 [Compound 299, N-[4-Bromo-2-(3-methoxy-benzylidene-hydrazinocarbonyl)-phenyl]-4-[(2-diethylamino-ethylamino)-methyl]-benzamide] | 3910 nM
7 | Cc1ccc(/C=N/NC(=O)c2cc(Br)ccc2NC(=O)c2ccc(CNCCCN(CCO)CCO)cc2)cc1C [Compound 300, 4-({3-[Bis-(2-hydroxy-ethyl)-amino]-propylamino}-methyl)-N-[4-bromo-2-(3,4-dimethyl-benzylidene-hydrazinocarbonyl)-phenyl]-benzamide] | 1920 nM
8 | O=C(Nc1ccc(Br)cc1C(=O)N/N=C/c1cccc(F)c1)c1ccc(CNCCCN(CCO)CCO)cc1 [Compound 301, 4-({3-[Bis-(2-hydroxy-ethyl)-amino]-propylamino}-methyl)-N-[4-bromo-2-(3-fluoro-benzylidene-hydrazinocarbonyl)-phenyl]-benzamide] | 15200 nM
9 | O=C(Nc1ccc(Br)cc1C(=O)N/N=C/c1ccc(Cl)c(C(F)(F)F)c1)c1ccc(CNCCCN(CCO)CCO)cc1 [Compound 302, 4-({3-[Bis-(2-hydroxy-ethyl)-amino]-propylamino}-methyl)-N-[4-bromo-2-(4-chloro-3-trifluoromethyl-benzylidene-hydrazinocarbonyl)-phenyl]-benzamide] | 1120 nM
10 | Cc1ccc(/C=N/NC(=O)c2cc(Br)ccc2NC(=O)c2ccc(CN(CC(C)O)CC(C)O)cc2)cc1C (stereo not drawn) [Compound 303, 4-{[Bis-(2-hydroxy-propyl)-amino]-methyl}-N-[4-bromo-2-(3,4-dimethyl-benzylidene-hydrazinocarbonyl)-phenyl]-benzamide] | 1130 nM
11 | Cc1ccc(/C=N/NC(=O)c2cc(Br)ccc2NC(=O)c2ccc(CN(CC(C)O)CC(C)O)cc2)cc1 (stereo not drawn) [Compound 304, 4-{[Bis-(2-hydroxy-propyl)-amino]-methyl}-N-[4-bromo-2-(4-methyl-benzylidene-hydrazinocarbonyl)-phenyl]-benzamide] | 1230 nM
12 | Cc1ccc(/C=N/NC(=O)c2cc(Br)ccc2NC(=O)c2ccc(CN3CCN(CC(=O)N4CCOCC4)CC3)cc2)cc1C [Compound 305, N-[4-Bromo-2-(3,4-dimethyl-benzylidene-hydrazinocarbonyl)-phenyl]-4-[4-(2-morpholin-4-yl-2-oxo-ethyl)-piperazin-1-ylmethyl]-benzamide] | 2470 nM
